Reference: patent US10391079B2, “Methods of diagnosing and treating Alzheimer's disease with S-equol” (Ausio Pharmaceuticals, LLC, priority 2016, dated 2019)
Entries after “also recorded” stand apart in the source; their conditions may differ.

Columns and labels:
[1] = system: Alzheimer's disease subjects; assay: Montreal Cognitive Assessment (MoCA) in single-blind S-equol pilot study; format: in vivo, human; settings: for MoCA Visit 3 (Mean ± SEM): wash-out evaluation, 2 weeks placebo after S-equol; for percent MoCA score change between visit 1 and visit 2: FIG. 1
Description: Alzheimer's disease subjects were recruited through the University of Kansas Alzheimer's Disease Center (ADC). The ADC maintains a clinical cohort whose routine characterizations include Clinical Dementia Rating (CDR) scale ratings, uniform data set (UDS) cognitive testing, and APOE genotyping. The diagnosis of clinic cohort participants is primarily based on CDR and UDS data, and is determined through a consensus conference that includes subspecialty-trained cognitive neurologists and an expert neuropsychologist. Subjects diagnosed with Alzheimer's disease further meet current criteria for that diagnosis in McKhann et al., Alzheimers Dement, 7 (2011) 263-269.
To qualify for the study, participants had to be female with very mild (CDR 0.5) or mild (CDR 1) Alzheimer's disease. Each participant was required to have a study partner. As part of the informed consent process, the subjects and study partners were told that during different parts of the study the participants would receive either an S-equol capsule or an inert placebo. The placebo could not be distinguished from the S-equol by sight, touch, or taste so although the investigators knew whether participants at any given point were receiving S-equol or placebo, the participants themselves were blind to the actual treatment. The S-equol and placebo capsule were provided by Ausio Pharmaceuticals, LLC (Cincinnati, Ohio).
(§1) Subjects received a two week supply of medication, which uniformly consisted of placebo, and were instructed to take the study medication twice a day. At the end of this initial two-week period participants returned to the ADC clinical trials unit for their first study visit (visit 1; lead-in evaluation). Visit 1 procedures included an assessment of study medication compliance, vital signs, a query for perceived side effects, the Montreal Cognitive Assessment (MoCA), and a 40 ml phlebotomy; the blood was used to measure platelet mitochondria cytochrome oxidase (COX) and citrate synthase (CS) activities. At the completion of this visit the next two weeks of study medication was dispensed, which uniformly consisted of 10 mg S-equol capsule.
(§2) At the end of this second two-week period participants returned to the ADC clinical trials unit for their second study visit (visit 2; active treatment evaluation). The same procedures were performed during the lead-in evaluation and dispensed the next two weeks of study medication, which at this point uniformly consisted of placebo.
(§3) At the end of this final two-week period the participants returned to the ADC clinical trials unit for their third study visit (visit 3; wash-out evaluation). The lead-in and active treatment evaluation procedures were performed again, which completed participation in this single-blind study.
(§4) Secondary outcomes included a safety analysis of the S-equol 10 mg twice per day dose and an analysis of MoCA scores.

[2] = system: platelet mitochondria cytochrome oxidase (COX); assay: Platelet mitochondria COX activity referenced to CS activity (COX/CS) in S-equol pilot study; format: in vivo, human; settings: for COX/CS Visit 3 (Mean ± SEM): wash-out, 2 weeks placebo after S-equol
Description: as §1, §2, §3
Forty milliliter blood samples were collected in tubes containing acid-citrate-dextrose (ACD) tubes as an anticoagulant, and maintained at room temperature. Within 24 hours of phlebotomy the blood was processed by the ADC Mitochondrial Genomics and Metabolism Core. To initiate the processing procedure, platelets were isolated by centrifugation and enriched mitochondrial fractions prepared using previously described methods. Such procedures involved nitrogen cavitation to rupture platelets followed by centrifugation to collect mitochondria.
The protein concentrations of the enriched mitochondrial fractions were measured using a BCA protein assay kit (BioRad, Hercules, Calif.). COX Vmax activity was determined as a pseudo first order-rate constant (sec-1/mg) by measuring the oxidation of reduced cytochrome c at 550 nm.
In addition to measuring COX activity, each sample's citrate synthase (CS) Vmax activity (nmol/min/mg) was measured. This assay was performed spectrophotometrically by following the formation of 5-thio-2-nitrobenzoate (412 nm) following the addition of 100 μM oxaloacetate at 30° C. In addition to referencing COX activities to total protein, potential inter-sample differences in mitochondrial mass was corrected by referencing the COX activity for each sample to its corresponding CS activity.
An S-equol-associated modification of platelet mitochondria COX activity was designated as the primary outcome measure. To determine whether an S-equol-associated change in platelet mitochondrial COX activity occurred for an individual participant, an anticipated pattern of response analysis was used. It was expected that platelet mitochondria COX activity would increase in response to the active treatment.
Participants were identified as responding (i.e., increasing COX activity in response to treatment, classified as “successes” or “responders”) if the individual change (slope) from the lead-in measurement to the active treatment measurement was greater than the change (slope) from the active-treatment measurement to the wash-out (visit 3) measurement.

[3] = system: Alzheimer's disease patients; assay: Safety analysis of S-equol 10 mg twice per day; format: in vivo, human; settings: S-equol 10 mg twice per day for two weeks
Description: as §1, §4

cytochrome oxidase (COX) = settings: brains from ovariectomized mice; cited from earlier work

## Oc1ccc([C@H]2COc3cc(O)ccc3C2)cc1 [S-equol]
[1]; APOE4 carriers, 8 participants
  MoCA Visit 3 (Mean ± SEM): 15.9 ± 2.7
[1]; APOE4 carriers
  percent MoCA score change between visit 1 and visit 2: trended in a downward direction
[1]; APOE4 non-carriers, 7 participants
  MoCA Visit 3 (Mean ± SEM): 12.4 ± 1.6
[1]; APOE4 non-carriers
  percent MoCA score change between visit 1 and visit 2: in an upward direction
[1]; Total, 15 participants
  MoCA Visit 3 (Mean ± SEM): 14.3 ± 1.6
[1]; visits 1-3
  differences in mean MoCA scores between visits, or between APOE4 carriers and non-carriers: No significant differences were observed
[2]; APOE4 carriers, 8 participants
  COX/CS Visit 3 (Mean ± SEM): 4.4e-05
[2]; APOE4 non-carriers, outlier excluded, 6 participants
  COX/CS Visit 3 (Mean ± SEM): 4.1e-05
[2]; APOE4 non-carriers, outlier included, 7 participants
  COX/CS Visit 3 (Mean ± SEM): 5.1E−05 ± 1.1E−05
[2]; Total, outlier excluded, 14 participants
  COX/CS Visit 3 (Mean ± SEM): 4.2e-05
[2]; Total, outlier included, 15 participants
  COX/CS Visit 3 (Mean ± SEM): 4.7e-05
[2]; non-APOE4 carriers versus APOE4 carriers, FIG. 3
  percent COX/CS change between visit 1 and visit 2: trended higher in the non-APOE4 carriers than it did in the APOE4 carriers
[2]; visits 1-3
  differences in mean COX/CS values between visits, or between APOE4 carriers and non-carriers: No significant differences were observed
[3]
  adverse events: No treatment-related adverse events (either serious or non-serious) were observed; also recorded: No adverse events occurred
Cytochrome oxidase (COX)
  COX1 protein levels: increase
  cytochrome oxidase (COX) activity: increase
